Reference: PubChem BioAssay (NCI)
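Exposure lasted 48 hours, with cells grown in 96-well plates and compounds tested at five concentrations. TGI denotes the concentration required for complete inhibition of growth.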

Columns and labels:
Test in all cases: DTP human tumour cell line panel, 48 h
[1] = test system: CAKI-1 renal
[2] = test system: HL-60(TB) leukemia
[3] = test system: K-562 leukemia
[4] = test system: LOX IMVI melanoma
[5] = test system: MCF7 breast
[6] = test system: MDA-MB-231 breast
[7] = test system: NCI-H23 lung
[8] = test system: SK-MEL-2 melanoma
[9] = test system: SR leukemia
[10] = test system: U251 CNS

## COc1ccccc1N1C(=O)CSC1c1cccc(Oc2ccccc2)c1 (configuration not stated)
[1]
  TGI: 74.5 µM
[2]
  TGI: 72.6 µM
[3]
  TGI: 70.2 µM
[4]
  TGI: 32.4 µM
[5]
  TGI: 37.1 µM
[6]
  TGI: 32.4 µM
[7]
  TGI: 52.9 µM
[8]
  TGI: 29.9 µM
[9]
  TGI: 70.5 µM
[10]
  TGI: 30.7 µM

## Cc1cc2c3c(nc2c2cc[nH]c(C)c12)CCCC3
[2]
  TGI: 3.76 µM
[3]
  TGI: 5.65 µM
[4]
  TGI: 4.69 µM
[5]
  TGI: 3.02 µM
[6]
  TGI: 3.17 µM
[7]
  TGI: 10.4 µM
[8]
  TGI: 3.2 µM
[9]
  TGI: 4.29 µM
[10]
  TGI: 3.83 µM

## Brc1ccc2nc(-c3cccs3)nc(N3CCN(c4ccccc4)CC3)c2c1
[1]
  TGI: > 100 µM
[2]
  TGI: > 100 µM
[3]
  TGI: > 100 µM
[4]
  TGI: > 100 µM
[5]
  TGI: > 100 µM
[6]
  TGI: > 100 µM
[7]
  TGI: > 100 µM
[8]
  TGI: > 100 µM
[9]
  TGI: > 100 µM
[10]
  TGI: > 100 µM

## CCCC(=O)Oc1c2ccsc2c(OC(=O)CCC)c2ccsc12
[1]
  TGI: 11.7 µM
[2]
  TGI: 3.79 µM
[3]
  TGI: 8.46 µM
[4]
  TGI: 10.7 µM
[5]
  TGI: 7.55 µM
[6]
  TGI: 10.3 µM
[7]
  TGI: 3.64 µM
[8]
  TGI: 1.86 µM
[9]
  TGI: 7.32 µM
[10]
  TGI: 4.4 µM

## CC(C)(C)OC(=O)NCC(c1c[nH]c2cc(Br)ccc12)c1c[nH]c2cc(Br)ccc12
[1]
  TGI: 91.5 µM
[2]
  TGI: 64.2 µM
[3]
  TGI: > 100 µM
[4]
  TGI: 32.2 µM
[5]
  TGI: 34.7 µM
[6]
  TGI: 32.4 µM
[7]
  TGI: 34.2 µM
[8]
  TGI: 34 µM
[9]
  TGI: > 100 µM
[10]
  TGI: 31 µM

## Cc1ccc2c(ccc3ncc(CNc4ccc(NS(C)(=O)=O)cc4)c32)[nH]1
[1]
  TGI: 58 µM
[2]
  TGI: 65.3 µM
[3]
  TGI: 46.3 µM
[4]
  TGI: 46.2 µM
[5]
  TGI: 44.5 µM
[6]
  TGI: 74.5 µM
[7]
  TGI: 58.7 µM
[8]
  TGI: 38.5 µM
[9]
  TGI: 50.8 µM
[10]
  TGI: 72.2 µM

## Nc1nncc2n[nH]nc12
[1]
  TGI: > 100 µM
[2]
  TGI: > 100 µM
[5]
  TGI: > 100 µM
[6]
  TGI: > 100 µM
[7]
  TGI: > 100 µM
[8]
  TGI: > 100 µM
[9]
  TGI: > 100 µM
[10]
  TGI: > 100 µM

## NS(=O)(=O)c1ccc(N=Nc2ccc(O)cc2)cc1
[1]
  TGI: > 100 µM
[2]
  TGI: > 100 µM
[3]
  TGI: > 100 µM
[4]
  TGI: > 100 µM
[5]
  TGI: > 100 µM
[6]
  TGI: > 100 µM
[7]
  TGI: > 100 µM
[8]
  TGI: > 100 µM
[9]
  TGI: > 100 µM
[10]
  TGI: > 100 µM

## Cc1cn(CC2(CO)CCC2)c(=O)[nH]c1=O
[1]
  TGI: > 100 µM
[2]
  TGI: > 100 µM
[3]
  TGI: > 100 µM
[4]
  TGI: > 100 µM
[5]
  TGI: > 100 µM
[6]
  TGI: > 100 µM
[7]
  TGI: > 100 µM
[8]
  TGI: > 100 µM
[9]
  TGI: > 100 µM
[10]
  TGI: > 100 µM

## CN1/C(=C\N=O)C(C)(C)N(O)C1(C)C
[1]
  TGI: > 100 µM
[2]
  TGI: > 100 µM
[3]
  TGI: > 100 µM
[4]
  TGI: > 100 µM
[5]
  TGI: > 100 µM
[6]
  TGI: > 100 µM
[7]
  TGI: > 100 µM
[8]
  TGI: > 100 µM
[9]
  TGI: > 100 µM
[10]
  TGI: > 100 µM

## NC1=Nc2ccccc2Sc2nccn21
[1]
  TGI: 64.9 µM
[2]
  TGI: 45 µM
[3]
  TGI: 50 µM
[4]
  TGI: 32.3 µM
[5]
  TGI: > 100 µM
[6]
  TGI: 35.9 µM
[7]
  TGI: 52.2 µM
[8]
  TGI: > 100 µM
[9]
  TGI: 80.8 µM
[10]
  TGI: 96.2 µM
